Source: PubChem BioAssay (NCI)
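48-hour exposure; five concentrations; linearly interpolated endpoints. Definition used: TGI = concentration required for complete inhibition of growth.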

Experiments:
Assay in all cases: NCI anticancer screen, dose series, 48 h
[1] = system: HOP-92 NSCLC
[2] = system: SF-268 CNS
[3] = system: NCI-H23 lung
[4] = system: TK-10 renal
[5] = system: U251 CNS
[6] = system: HOP-62 NSCLC
[7] = system: HL-60(TB) leukemia
[8] = system: LXFL 529 NSCLC
[9] = system: K-562 leukemia
[10] = system: MALME-3M melanoma
[11] = system: SN12C renal
[12] = system: CAKI-1 renal
[13] = system: IGROV1 ovarian
[14] = system: SK-MEL-2 melanoma
[15] = system: SW-620 colon
[16] = system: SNB-78 CNS
[17] = system: OVCAR-5 ovarian
[18] = system: OVCAR-3 ovarian
[19] = system: M14 melanoma
[20] = system: SNB-19 CNS
[21] = system: KM12 colon
[22] = system: RXF 393 renal
[23] = system: 786-0 renal
[24] = system: HCT-116 colon
[25] = system: KM20L2 colon
[26] = system: NCI-H226 lung
[27] = system: A549 NSCLC
[28] = system: HCC-2998 colon
[29] = system: SK-OV-3 ovarian
[30] = system: SNB-75 CNS
[31] = system: LOX IMVI melanoma
[32] = system: OVCAR-4 ovarian
[33] = system: DMS 114 small cell lung
[34] = system: HCT-15 colon
[35] = system: UACC-62 melanoma
[36] = system: ACHN renal
[37] = system: EKVX NSCLC
[38] = system: UO-31 renal
[39] = system: SK-MEL-5 melanoma
[40] = system: MOLT-4 leukemia
[41] = system: MDA-MB-435
[42] = system: T-47D breast
[43] = system: MDA-MB-231 breast
[44] = system: DU-145 prostate
[45] = system: MDA-N
[46] = system: SF-295 CNS
[47] = system: MCF7 breast
[48] = system: NCI-H460 lung
[49] = system: BT-549 breast
[50] = system: NCI/ADR-RES ovarian
[51] = system: NCI-H522 lung
[52] = system: SF-539 CNS
[53] = system: RPMI-8226 leukemia
[54] = system: CCRF-CEM leukemia
[55] = system: COLO 205 colon
[56] = system: UACC-257 melanoma
[57] = system: SR leukemia
[58] = system: A498 renal
[59] = system: SK-MEL-28 melanoma
[60] = system: HT29 colon
[61] = system: HS 578T breast
[62] = system: PC-3 prostate
[63] = system: OVCAR-8 ovarian

Measured: TGI

Cc1ccccc1C(=O)C1CCCCC1O (configuration not stated)
not listed: [41] | [42] | [43] | [44] | [45] | [46] | [47] | [48] | [49] | [50] | [51] | [52] | [53] | [54] | [55] | [56] | [57] | [58] | [59] | [60] | [61] | [62] | [63]
> 100 µM: all other assays above

CC(C)(C)NC(=O)CCC1C(C(=O)NC(C)(C)C)C2(Cl)C(Cl)=C(Cl)C1(Cl)C2(Cl)Cl (configuration not stated)
not listed: [1] | [8] | [12] | [16] | [25] | [33]
> 100 µM: all other assays above
